Measured values as given in patent publication US10821115B2, “Compounds that inhibit Mcl-1 protein” (priority 2017, dated 2020).
pIC50: −log10 of the molar value. Where two headings read alike, the source gives them in different places.

Legend:
[1] = biological target: recombinant human Mcl-1 (residues 171-327) / Bim interaction (Homo sapiens (Human), UniProt Q07820); assay: biochemical; type: binding; settings: read-out: Mcl-1 HTRF IC50
[2] = tested on: human multiple myeloma cell line, OPM-2; assay: Cell viability assay (OPM-2 10 FBS), CellTiter-Glo; type: cell-based
Method in brief: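 OPM-2 cells at 3000 cells/well in RPMI 1640 with 10% FBS were exposed to serially diluted compounds for 16 h at 37 °C, 5% CO2.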

[3] = TR-FRET, Mcl-1(171-327) / biotin-Bim (51-76)
[4] = Homo sapiens, OPM-2, 16 h, read-out: OPM-2 10% FBS IC50 IP, OPM-2 cells, 10% FBS, 16 h, CellTiter-Glo
[5] = 0.1 nM Mcl-1(171-327), 0.05 nM biotin-Bim (51-76)
[6] = Homo sapiens, OPM-2, 16 h, read-out: OPM-2 10% FBS IC50 IP, OPM-2 cells, 10% FBS, 16 h incubation

recombinant human Mcl-1 (residues 171-327) / Bim interaction, sequence (Q07820 171-327): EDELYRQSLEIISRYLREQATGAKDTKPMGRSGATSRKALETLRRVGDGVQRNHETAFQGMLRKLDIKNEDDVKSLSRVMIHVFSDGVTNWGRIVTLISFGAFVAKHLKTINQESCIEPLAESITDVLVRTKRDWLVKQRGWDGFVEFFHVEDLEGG

Row | Compound | pIC50 [1, 3] | pIC50 [2, 4] | pIC50 [1, 5] | pIC50 [2, 6] | pIC50 ([2]; read-out: OPM-2 10% FBS IC50 IP, OPM-2 cells, 10% FBS, 16 h, CellTiter-Glo)
1 | C[C@@H]1[C@@H](C)CCC[C@](O)(CC(=O)O)[C@@H]2CC[C@H]2CN2C[C@@]3(CCCc4cc(Cl)ccc43)COc3ccc(cc32)C(=O)NS1(=O)=O [Example 100097, ((1S,3′R,6′R,7′S,11′S,12′R)-6-chloro-7′-hydroxy-11′,12′-dimethyl-13′,13′-dioxido-15′-oxo-3,4-dihydro-2H-spiro[naphthalene-1,22′-[20]oxa[13]thia[1,14]diazatetracyclo [14.7.2.0~3,6~.0~19,24~]pentacosa[16,18,24]trien]-7′-yl)acetic acid] | 10.09 | 5.28 | – | – | –
2 | COCC[C@@H]1[C@@H](C)C/C=C/[C@@](CN2CCN3CCCC[C@@H]3C2)(OC)[C@@H]2CC[C@H]2CN2C[C@@]3(CCCc4cc(Cl)ccc43)COc3ccc(cc32)C(=O)NS1(=O)=O [Example 181, (1S,3′R,6′R,7′R,8′E,11′S,12′R)-6-chloro-7′-methoxy-12′-(2-methoxyethyl)-11′-methyl-7′-((9aR)-octahydro-2H-pyrido[1,2-a]pyrazin-2-ylmethyl)-3,4-dihydro-2H,15′H-spiro[naphthalene-1,22′-[20]oxa[13]thia[1,14]diazatetracyclo [14.7.2.0~3,6~.0~19,24~]pentacosa[8,16,18,24]tetraen]-15′-one 13′,13′-dioxide] | – | – | 9.49 | 7.13 | –
3 | CN[C@@H]1C[C@H](C)[C@@H](C)S(=O)(=O)NC(=O)c2ccc3c(c2)N(C[C@@H]2CC[C@H]2[C@@](C)(O)C1)C[C@@]1(CCCc2cc(Cl)ccc21)CO3 [Example 100066, (1S,3′R,6′R,7′S,9′R,11′S,12′R)-6-chloro-7′-hydroxy-7′,11′,12′-trimethyl-9′-(methylamino)-3,4-dihydro-2H,15′H-spiro[naphthalene-1,22′-[20]oxa[13]thia[1,14]diazatetracyclo [14.7.2.0~3,6~.0~19,24~]pentacosa[16,18,24]trien]-15′-one 13′,13′-dioxide] | 8.84 | – | – | – | 5.42
4 | CC(=O)N[C@@]1(C#N)CCC[C@H](C)[C@@H](C)S(=O)(=O)NC(=O)c2ccc3c(c2)N(C[C@@H]2CC[C@H]21)C[C@@]1(CCCc2cc(Cl)ccc21)CO3 [Example 100263, N-((1S,3′R,6′R,7′S,11′S,12′R)-6-chloro-7′-cyano-11′,12′-dimethyl-13′,13′-dioxido-15′-oxo-3,4-dihydro-2H-spiro[naphthalene-1,22′-[20]oxa[13]thia[1,14]diazatetracyclo [14.7.2.0~3,6~.0~19,24~]pentacosa[16,18,24]trien]-7′-yl)acetamide] | 8.74 | 5.47 | – | – | –
5 | CO[C@@]1(CN2CCC3(CC2)CN(C)C(=O)O3)/C=C/C[C@H](C)[C@@H](C)S(=O)(=O)NC(=O)c2ccc3c(c2)N(C[C@@H]2CC[C@H]21)C[C@@]1(CCCc2cc(Cl)ccc21)CO3 [Example 290, (1S,3′R,6′R,7′S,8′E,11′S,12′R)-6-chloro-7′-methoxy-11′,12′-dimethyl-7′-((3-methyl-2-oxo-1-oxa-3,8-diazaspiro[4.5]dec-8-yl)methyl)-3,4-dihydro-2H,15′H-spiro[naphthalene-1,22′-[20]oxa[13]thia[1,14]diazatetracyclo [14.7.2.0~3,6~.0~19,24~]pentacosa[8,16,18,24]tetraen]-15′-one 13′,13′-dioxide] | – | – | 9.67 | 6.83 | –
6 | COCC[C@@H]1[C@@H](C)C/C=C/[C@](CN2CCN3CCCC[C@@H]3C2)(OC)[C@@H]2CC[C@H]2CN2C[C@@]3(CCCc4cc(Cl)ccc43)COc3ccc(cc32)C(=O)NS1(=O)=O [Example 182, (1S,3′R,6′R,7′S,8′E,11′S,12′R)-6-chloro-7′-methoxy-12′-(2-methoxyethyl)-11′-methyl-7′-((9aR)-octahydro-2H-pyrido[1,2-a]pyrazin-2-ylmethyl)-3,4-dihydro-2H,15′H-spiro[naphthalene-1,22′-[20]oxa[13]thia[1,14]diazatetracyclo [14.7.2.0~3,6~.0~19,24~]pentacosa[8,16,18,24]tetraen]-15′-one 13′,13′-dioxide] | – | – | 9.77 | 7.06 | –
